Experimental data published in patent publication US11254668B2, “Pyrazolo[1,5-A]pyrazin-4-yl and related derivatives” (Pfizer Inc., priority 2017, dated 2022).

Tests used:
Assay type in all cases: biochemical
JAK2 = JAK2 (Homo sapiens (Human), UniProt O60674); assay: JAK Caliper Enzyme Assay at 1 mM ATP, JAK2
Outline: (§1)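 Read-out is Caliper LabChip mobility-shift separation of phosphorylated from unphosphorylated fluorescent peptide after EDTA termination. Each JAK kinase domain (human, recombinant) runs at 1 mM ATP at room temperature, adjusted for 20–30% turnover. Inhibition is normalized to DMSO and positive-control wells and plotted against concentration.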

TYK2 = TYK2 (Homo sapiens (Human), UniProt P29597); assay: JAK Caliper Enzyme Assay at 1 mM ATP, TYK2
TYK2, sequence (P29597 897-1176): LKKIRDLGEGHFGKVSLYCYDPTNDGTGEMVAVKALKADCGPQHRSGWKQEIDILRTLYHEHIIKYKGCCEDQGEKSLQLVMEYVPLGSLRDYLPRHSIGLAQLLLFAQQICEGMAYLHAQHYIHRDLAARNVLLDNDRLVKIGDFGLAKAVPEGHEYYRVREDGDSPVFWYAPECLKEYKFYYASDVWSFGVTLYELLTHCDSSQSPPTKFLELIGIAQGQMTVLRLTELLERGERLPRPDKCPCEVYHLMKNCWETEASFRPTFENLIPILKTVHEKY
Outline: as §1

JAK1 = JAK1 (Homo sapiens (Human), UniProt P23458); assay: JAK Caliper Enzyme Assay at 1 mM ATP, JAK1
JAK1, sequence (P23458 875-1153): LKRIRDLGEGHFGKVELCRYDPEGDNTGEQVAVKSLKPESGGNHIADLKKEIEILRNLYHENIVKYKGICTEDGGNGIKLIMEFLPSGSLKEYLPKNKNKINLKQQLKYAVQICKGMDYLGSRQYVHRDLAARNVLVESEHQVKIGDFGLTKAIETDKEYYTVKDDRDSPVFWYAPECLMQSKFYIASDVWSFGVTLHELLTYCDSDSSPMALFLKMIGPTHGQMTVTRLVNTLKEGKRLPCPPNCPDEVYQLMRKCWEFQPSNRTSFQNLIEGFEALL
Outline: (§2)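 IC50 (nM) derived from percent conversion of fluorescently labelled peptide, measured by Caliper LabChip mobility-shift separation after EDTA stop. Each JAK family kinase domain (human, recombinant) run at 1 mM ATP and room temperature, conditions set to 20-30% product; DMSO wells define uninhibited baseline.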

JAK3 = JAK3 (Homo sapiens (Human), UniProt P52333); assay: JAK Caliper Enzyme Assay at 1 mM ATP, JAK3
JAK3, sequence (P52333 822-1111): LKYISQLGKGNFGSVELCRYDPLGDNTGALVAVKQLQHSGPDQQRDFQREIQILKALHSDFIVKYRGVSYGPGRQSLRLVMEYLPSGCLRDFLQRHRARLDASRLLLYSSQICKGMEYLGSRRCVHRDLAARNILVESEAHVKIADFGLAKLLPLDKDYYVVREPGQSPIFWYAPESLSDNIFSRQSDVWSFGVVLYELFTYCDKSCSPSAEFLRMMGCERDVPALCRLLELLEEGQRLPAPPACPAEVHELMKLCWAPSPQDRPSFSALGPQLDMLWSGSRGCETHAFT
Outline: as §2

JAK2, sequence (O60674 849-1124): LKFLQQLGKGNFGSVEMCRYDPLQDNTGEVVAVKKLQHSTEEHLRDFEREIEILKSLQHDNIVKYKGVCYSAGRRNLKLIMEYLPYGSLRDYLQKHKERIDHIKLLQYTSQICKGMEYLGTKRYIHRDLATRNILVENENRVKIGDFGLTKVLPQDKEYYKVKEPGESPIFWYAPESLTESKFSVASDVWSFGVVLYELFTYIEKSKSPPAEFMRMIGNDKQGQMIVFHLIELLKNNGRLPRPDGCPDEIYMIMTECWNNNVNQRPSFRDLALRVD

SMILES	IC50 (JAK2) [nM]	IC50 (TYK2) [nM]	IC50 (JAK1) [nM]	IC50 (JAK3) [nM]
N#CC[C@]1(n2ccc(-c3nc(-c4ccc(N)cn4)cc4ncccc34)n2)C[C@@H](C#N)C1 [Example 190, cis-3-{3-[7-(5-aminopyridin-2-yl)-1,6-naphthyridin-5-yl]-1H-pyrazol-1-yl}-3-(cyanomethyl)cyclobutanecarbonitrile]	596	55	1310	> 10000
CS(=O)(=O)N1CC(CC#N)(n2ccc(-c3nc(-c4cccnc4N)cc4ncccc34)n2)C1 [Example 191]	931	75	5060	> 10000
N#CCC1(n2ccc(-c3nc(-c4ccc(N)nc4)cc4ncccc34)n2)CN(CC(F)(F)F)C1 [Example 192]	841	68	951	> 10000
CS(=O)(=O)N1CC(CC#N)(n2ccc(-c3nc(-c4cncc(N)c4)cc4ncccc34)n2)C1 [Example 193]	1680	147	5570	> 10000
CS(=O)(=O)N1CC(CC#N)(n2ccc(-c3nc(-c4ccc(N)nc4)cc4ncccc34)n2)C1 [Example 194]	436	45	843	> 10000
N#CC[C@]1(n2ccc(-c3nc(-c4ccc(N)nc4)cc4ncccc34)n2)C[C@@H](C#N)C1 [Example 195, cis-3-{3-[7-(6-aminopyridin-3-yl)-1,6-naphthyridin-5-yl]-1H-pyrazol-1-yl}-3-(cyanomethyl)cyclobutanecarbonitrile]	31	9	50	2060
N#CC[C@]1(n2ccc(-c3nc(-c4ccc(N)nc4)cc4ncccc34)n2)C[C@H](C#N)C1 [Example 196, trans-3-{3-[7-(6-aminopyridin-3-yl)-1,6-naphthyridin-5-yl]-1H-pyrazol-1-yl}-3-(cyanomethyl)cyclobutanecarbonitrile]	233	45	488	> 10000
N#CCC1(n2ccc(-c3nc(-c4ccnc(N)c4)cc4ncccc34)n2)CN(CC(F)(F)F)C1 [Example 197]	688	37	656	> 10000
N#CC[C@]1(n2ccc(-c3nc(-c4ccnc(N)c4)cc4ncccc34)n2)C[C@@H](C#N)C1 [Example 198, cis-3-{3-[7-(2-aminopyridin-4-yl)-1,6-naphthyridin-5-yl]-1H-pyrazol-1-yl}-3-(cyanomethyl)cyclobutanecarbonitrile]	32	7	39	1930
N#CCC1(n2ccc(-c3nc(-c4ccnc(N)c4)cc4ncccc34)n2)CC(C#N)C1 (stereo not drawn) [Example 199, trans-3-{3-[7-(2-aminopyridin-4-yl)-1,6-naphthyridin-5-yl]-1H-pyrazol-1-yl}-3-(cyanomethyl)cyclobutanecarbonitrile]	199	20	337	> 10000
C[C@]1(C#N)C[C@](CC#N)(n2ccc(-c3nc(-c4ccnc(N)c4)cc4ncccc34)n2)C1 [Example 200, trans-3-{3-[7-(2-aminopyridin-4-yl)-1,6-naphthyridin-5-yl]-1H-pyrazol-1-yl}-3-(cyanomethyl)-1-methylcyclobutanecarbonitrile]	2970	573	3220	> 10000
C[C@]1(C#N)C[C@@](CC#N)(n2ccc(-c3nc(-c4ccnc(N)c4)cc4ncccc34)n2)C1 [Example 201, cis-3-{3-[7-(2-aminopyridin-4-yl)-1,6-naphthyridin-5-yl]-1H-pyrazol-1-yl}-3-(cyanomethyl)-1-methylcyclobutanecarbonitrile]	177	31	308	> 10000
CCOC(=O)Nc1cncc(-c2cc3ncccc3c(-c3ccn(C4(CC#N)CN(S(C)(=O)=O)C4)n3)n2)c1 [Example 202, ethyl [5-(5-{1-[3-(cyanomethyl)-1-(methylsulfonyl)azetidin-3-yl]-1H-pyrazol-3-yl}-1,6-naphthyridin-7-yl)pyridin-3-yl]carbamate]	> 10000	135	> 10000	> 10000
CN(C)c1ccc(-c2cc3ncccc3c(-c3ccn(C4(CC#N)CN(S(C)(=O)=O)C4)n3)n2)cn1 [Example 203]	86	14	264	> 10000
CS(=O)(=O)Nc1cncc(-c2cc3ncccc3c(-c3ccn(C4(CC#N)CN(S(C)(=O)=O)C4)n3)n2)c1 [Example 204, N-[5-(5-{1-[3-(cyanomethyl)-1-(methylsulfonyl)azetidin-3-yl]-1H-pyrazol-3-yl}-1,6-naphthyridin-7-yl)pyridin-3-yl]methanesulfonamide]	6690	799	> 10000	> 10000
CS(=O)(=O)Nc1ccc(-c2cc3ncccc3c(-c3ccn(C4(CC#N)CN(S(C)(=O)=O)C4)n3)n2)cn1 [Example 205, N-[5-(5-{1-[3-(cyanomethyl)-1-(methylsulfonyl)azetidin-3-yl]-1H-pyrazol-3-yl}-1,6-naphthyridin-7-yl)pyridin-2-yl]methanesulfonamide]	149	17	120	> 10000
CS(=O)(=O)c1ccc(-c2cc3ncccc3c(-c3ccn(C4(CC#N)CN(S(C)(=O)=O)C4)n3)n2)cn1 [Example 206, [1-(methylsulfonyl)-3-(3-{7-[6-(methylsulfonyl)pyridin-3-yl]-1,6-naphthyridin-5-yl}-1H-pyrazol-1-yl)azetidin-3-yl]acetonitrile]	479	50	2530	> 10000
CS(=O)(=O)c1ccc(-c2cc3ncccc3c(-c3ccn(C4(CC#N)CC(C#N)C4)n3)n2)cn1 (stereo not drawn) [Example 207, cis-3-(cyanomethyl)-3-(3-{7-[6-(methylsulfonyl)pyridin-3-yl]-1,6-naphthyridin-5-yl}-1H-pyrazol-1-yl)cyclobutanecarbonitrile]	56	24	285	9270
CS(=O)(=O)c1ccc(-c2cc3ncccc3c(-c3ccn([C@]4(CC#N)C[C@@H](C#N)C4)n3)n2)cn1 [Example 208, trans-3-(cyanomethyl)-3-(3-{7-[6-(methylsulfonyl)pyridin-3-yl]-1,6-naphthyridin-5-yl}-1H-pyrazol-1-yl)cyclobutanecarbonitrile]	362	81	2580	> 10000
CS(=O)(=O)N1CC(CC#N)(n2ccc(-c3nc(-c4ccc(S(N)(=O)=O)nc4)cc4ncccc34)n2)C1 [Example 209, 5-(5-{1-[3-(cyanomethyl)-1-(methylsulfonyl)azetidin-3-yl]-1H-pyrazol-3-yl}-1,6-naphthyridin-7-yl)pyridine-2-sulfonamide]	433	51	1940	> 10000
N#CC[C@]1(n2ccc(-c3nc(-c4ccc(S(N)(=O)=O)nc4)cc4ncccc34)n2)C[C@H](C#N)C1 [Example 210, 5-(5-{1-[trans-3-cyano-1-(cyanomethyl)cyclobutyl]-1H-pyrazol-3-yl}-1,6-naphthyridin-7-yl)pyridine-2-sulfonamide]	300	62	1530	> 10000
N#CC[C@]1(n2ccc(-c3nc(-c4ccc(S(N)(=O)=O)nc4)cc4ncccc34)n2)C[C@H](C#N)C1 [Example 211, 5-(5-{1-[cis-3-cyano-1-(cyanomethyl)cyclobutyl]-1H-pyrazol-3-yl}-1,6-naphthyridin-7-yl)pyridine-2-sulfonamide]	39	17	181	9820
N#CC[C@]1(n2ccc(-c3nc(-c4cccc(CO)n4)cc4ncccc34)n2)C[C@@H](C#N)C1 [Example 212, cis-3-(cyanomethyl)-3-(3-{7-[6-(hydroxymethyl)pyridin-2-yl]-1,6-naphthyridin-5-yl}-1H-pyrazol-1-yl)cyclobutanecarbonitrile]	900	198	2950	> 10000
N#CC[C@]1(n2ccc(-c3nc(-c4ccnc(CO)c4)cc4ncccc34)n2)C[C@@H](C#N)C1 [Example 213, cis-3-(cyanomethyl)-3-(3-{7-[2-(hydroxymethyl)pyridin-4-yl]-1,6-naphthyridin-5-yl}-1H-pyrazol-1-yl)cyclobutanecarbonitrile]	46	19	87	4330
N#CC[C@]1(n2ccc(-c3nc(-c4cccc(C(N)=O)n4)cc4ncccc34)n2)C[C@H](C#N)C1 [Example 214, 6-(5-{1-[cis-3-cyano-1-(cyanomethyl)cyclobutyl]-1H-pyrazol-3-yl}-1,6-naphthyridin-7-yl)pyridine-2-carboxamide]	471	53	2020	> 10000
N#CCC1(n2ccc(-c3nc(-c4ccnc(C(N)=O)c4)cc4ncccc34)n2)CN(CC(F)(F)F)C1 [Example 215, 4-(5-{1-[3-(cyanomethyl)-1-(2,2,2-trifluoroethyl)azetidin-3-yl]-1H-pyrazol-3-yl}-1,6-naphthyridin-7-yl)pyridine-2-carboxamide]	2190	175	6010	> 10000
